Compound: C1=CC2=C(C=C(C(=C2N=C1)O)N=NC3=CC4=C(C=C3)C=C(C=C4)S(=O)(=O)O)S(=O)(=O)O
Assay: relative viability (nuclei count vs DMSO), 5 days (fraction); higher = more cells survive
Settings: 8 µM
Procedure, shortened: (§1)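 Viability was read as treated-well nuclei divided by vehicle-well nuclei, using the median across plates. Lung cancer cell lines in 1536-well plates were kept overnight at 37 °C, pinned with five √10-spaced library-drug doses, and after 5 days were Hoechst-stained, imaged at 4× and counted in MetaXpress. Plates passed only with control CV below 25% and at least one doubling.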

| Cell Line | relative viability |
| --- | --- |
| BEN | 0.777 |
| HARA | 0.806 |
| HCC-78 | 0.95 |
| NCI-H322M | 0.951 |
| LCLC-97TM1 | 0.999 |
| NCI-H2009 | 0.922 |
| A-427 | 0.842 |
| NCI-H661 | 0.967 |
| NCI-H1734 | 0.996 |
| NCI-H460 | 0.945 |
| NCI-H2347 | 0.98 |
| SK-LU-1 | 0.988 |
| NCI-H1395 | 0.899 |
| 201T | 0.982 |
| NCI-H1915 | 0.966 |
| HCC-827 | 1.04 |
| LXF-289 | 0.955 |

Compound: O=C(NC1CCNCC1)c1n[nH]cc1NC(=O)c1c(Cl)cccc1Cl [AT-7519]
Assay: as above
Settings: 0.01 µM
Procedure, shortened: as §1

| Cell Line | relative viability |
| --- | --- |
| Calu-6 | 1.06 |
| HCC-366 | 1.06 |
| NCI-H1666 | 0.948 |
| NCI-H596 | 0.928 |
| LK-2 | 0.961 |
| NCI-H2087 | 1.03 |
| SK-MES-1 | 1.02 |
| H3255 | 1.04 |
| COR-L23 | 1.12 |
| COR-L 105 | 0.924 |
| IA-LM | 0.912 |
| LOU-NH91 | 0.93 |
| NCI-H2170 | 0.967 |
| NCI-H2405 | 0.987 |
| HOP-62 | 0.949 |
| HCC-44 | 0.992 |
| A549 | 0.978 |
| LU99A | 1.02 |

| Cell Line | relative viability |
| --- | --- |
| BEN | 0.917 |
| HARA | 0.86 |
| HCC-78 | 0.999 |
| NCI-H322M | 0.913 |
| LCLC-97TM1 | 0.918 |
| NCI-H2009 | 1.06 |
| A-427 | 1.11 |
| NCI-H661 | 1.04 |
| NCI-H1734 | 1.06 |
| NCI-H460 | 1 |
| NCI-H2347 | 1.05 |
| SK-LU-1 | 1.08 |
| NCI-H1395 | 0.934 |
| 201T | 1.02 |
| NCI-H1915 | 1.03 |
| HCC-827 | 1.04 |
| LXF-289 | 1 |

Same assay, conditions: 0.03162 µM

| Cell Line | relative viability |
| --- | --- |
| Calu-6 | 0.943 |
| HCC-366 | 1.03 |
| NCI-H1666 | 0.906 |
| NCI-H596 | 0.925 |
| LK-2 | 0.934 |
| NCI-H2087 | 0.874 |
| SK-MES-1 | 0.968 |
| H3255 | 0.96 |
| COR-L23 | 0.865 |
| COR-L 105 | 0.933 |
| IA-LM | 0.874 |
| LOU-NH91 | 0.963 |
| NCI-H2170 | 0.964 |
| NCI-H2405 | 0.973 |
| HOP-62 | 0.949 |
| HCC-44 | 0.99 |
| A549 | 0.903 |
| LU99A | 0.857 |

| Cell Line | relative viability |
| --- | --- |
| BEN | 0.876 |
| HARA | 0.897 |
| HCC-78 | 0.93 |
| NCI-H322M | 0.947 |
| LCLC-97TM1 | 0.892 |
| NCI-H2009 | 0.969 |
| A-427 | 1.02 |
| NCI-H661 | 0.874 |
| NCI-H1734 | 0.918 |
| NCI-H460 | 0.89 |
| NCI-H2347 | 0.958 |
| SK-LU-1 | 0.959 |
| NCI-H1395 | 0.998 |
| 201T | 0.988 |
| NCI-H1915 | 0.982 |
| HCC-827 | 1.04 |
| LXF-289 | 0.938 |

Same assay, conditions: 0.3162 µM

| Cell Line | relative viability |
| --- | --- |
| Calu-6 | 1.11 |
| HCC-366 | 0.993 |
| NCI-H1666 | 0.99 |
| NCI-H596 | 1.04 |
| LK-2 | 0.857 |
| NCI-H2087 | 0.991 |
| SK-MES-1 | 1 |
| H3255 | 0.969 |
| COR-L23 | 0.936 |
| COR-L 105 | 0.769 |
| IA-LM | 0.856 |
| LOU-NH91 | 0.956 |
| NCI-H2170 | 1.02 |
| NCI-H2405 | 1.01 |
| HOP-62 | 1.04 |
| HCC-44 | 1.05 |
| A549 | 0.931 |
| LU99A | 0.826 |

| Cell Line | relative viability |
| --- | --- |
| BEN | 1.15 |
| HARA | 1.07 |
| HCC-78 | 1.06 |
| NCI-H322M | 0.773 |
| LCLC-97TM1 | 0.844 |
| NCI-H2009 | 1.02 |
| A-427 | 0.944 |
| NCI-H661 | 1.02 |
| NCI-H1734 | 0.782 |
| NCI-H460 | 0.982 |
| NCI-H2347 | 1.01 |
| SK-LU-1 | 0.924 |
| NCI-H1395 | 0.816 |
| 201T | 1.04 |
| NCI-H1915 | 0.881 |
| HCC-827 | 1.02 |
| LXF-289 | 1.01 |

Same assay, conditions: 1 µM

| Cell Line | relative viability |
| --- | --- |
| Calu-6 | 0.593 |
| HCC-366 | 0.926 |
| NCI-H1666 | 0.752 |
| NCI-H596 | 0.912 |
| LK-2 | 0.682 |
| NCI-H2087 | 0.4 |
| SK-MES-1 | 0.771 |
| H3255 | 0.838 |
| COR-L23 | 0.424 |
| COR-L 105 | 0.54 |
| IA-LM | 0.854 |
| LOU-NH91 | 0.933 |
| NCI-H2170 | 0.991 |
| NCI-H2405 | 0.812 |
| HOP-62 | 1.04 |
| HCC-44 | 1.05 |
| A549 | 0.792 |
| LU99A | 0.974 |

| Cell Line | relative viability |
| --- | --- |
| BEN | 0.887 |
| HARA | 0.892 |
| HCC-78 | 1.05 |
| NCI-H322M | 0.798 |
| LCLC-97TM1 | 0.47 |
| NCI-H2009 | 0.78 |
| A-427 | 0.723 |
| NCI-H661 | 0.648 |
| NCI-H1734 | 0.562 |
| NCI-H460 | 0.601 |
| NCI-H2347 | 0.762 |
| SK-LU-1 | 0.73 |
| NCI-H1395 | 0.665 |
| 201T | 1.11 |
| NCI-H1915 | 0.84 |
| HCC-827 | 0.997 |
| LXF-289 | 1.02 |
